According to publication PMC10698726 (Molecular Pharmaceutics, 2023):
Where two headings read alike, the source gives them in different places.

Legend:
OCT1 = biological target: T1, OCT1 (Homo sapiens, UniProt O15245); experiment: Inhibition of model substrate uptake in OCT1-overexpressing HEK293 cells; assay type: cell-based; parameters: expressed in transfected cells; host or cells: HEK293; settings: for inhibition at 5 min, 20 μM / selectivity ratio at 5 min: OCT1-overexpressing HEK293 cells
T1 sequence (O15245 1-554): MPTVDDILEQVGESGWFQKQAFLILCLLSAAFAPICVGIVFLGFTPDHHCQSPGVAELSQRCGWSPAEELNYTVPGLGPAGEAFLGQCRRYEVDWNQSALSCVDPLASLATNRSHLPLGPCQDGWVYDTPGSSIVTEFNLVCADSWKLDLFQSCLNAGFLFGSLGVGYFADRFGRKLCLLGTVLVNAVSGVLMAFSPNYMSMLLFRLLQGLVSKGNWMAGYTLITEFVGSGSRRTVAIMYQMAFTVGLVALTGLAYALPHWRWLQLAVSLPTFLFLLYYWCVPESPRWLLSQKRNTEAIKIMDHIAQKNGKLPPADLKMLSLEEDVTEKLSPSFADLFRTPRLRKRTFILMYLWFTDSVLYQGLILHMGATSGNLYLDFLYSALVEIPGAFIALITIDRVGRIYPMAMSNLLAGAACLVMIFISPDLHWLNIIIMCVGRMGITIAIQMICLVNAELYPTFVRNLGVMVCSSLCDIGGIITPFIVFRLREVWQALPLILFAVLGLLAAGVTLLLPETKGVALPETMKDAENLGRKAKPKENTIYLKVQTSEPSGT
Procedure: Koepsell and Gorbulev (University of Würzburg, Germany).
Fluorescence quantification was performed in technical duplicates.

OCT3 = biological target: T2, OCT3 (Homo sapiens, UniProt O75751); experiment: Inhibition of model substrate uptake in OCT3-overexpressing HEK293 cells; assay type: cell-based; settings: for IC50: OCT3, Table 1, read-out: IC50
T2 construct: expressed in transfected cells; host or cells: HEK293
T2 sequence (O75751 1-556): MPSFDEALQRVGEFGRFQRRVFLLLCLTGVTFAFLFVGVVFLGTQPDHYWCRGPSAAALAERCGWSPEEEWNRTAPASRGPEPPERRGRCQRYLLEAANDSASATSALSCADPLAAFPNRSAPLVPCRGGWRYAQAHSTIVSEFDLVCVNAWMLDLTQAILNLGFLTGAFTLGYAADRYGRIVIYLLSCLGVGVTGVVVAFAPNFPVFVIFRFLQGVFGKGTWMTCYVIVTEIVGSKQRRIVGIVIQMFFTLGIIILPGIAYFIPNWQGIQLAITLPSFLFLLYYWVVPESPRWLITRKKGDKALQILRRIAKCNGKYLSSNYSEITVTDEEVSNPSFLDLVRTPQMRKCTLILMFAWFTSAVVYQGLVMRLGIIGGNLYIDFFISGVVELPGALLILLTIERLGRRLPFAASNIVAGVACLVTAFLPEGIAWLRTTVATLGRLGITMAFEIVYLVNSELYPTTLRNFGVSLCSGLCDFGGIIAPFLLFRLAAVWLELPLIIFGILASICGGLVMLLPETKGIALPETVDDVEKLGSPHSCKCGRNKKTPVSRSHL
Procedure, shortened: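 IC50 values were fitted with a Hill equation from net uptake, calculated as uptake in overexpressing HEK293 cells minus empty-vector control uptake. Cells were exposed for 5 min to 2 μM model substrate alone, with 20 μM inhibitor, or with a concentration series. Uptake was quantified by ASP^+ fluorescence or LC–MS/MS after lysis in 80% acetonitrile.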

OCT2 = biological target: T3, OCT2 (Homo sapiens, UniProt O15244); experiment: Inhibition of model substrate uptake in OCT2-overexpressing HEK293 cells; settings: for inhibition at 5 min, 20 μM: human, OCT2-overexpressing HEK293 cells; for inhibition at 5 min, 20 μM / ASP+ inhibition [%] / N-Ethyllidocaine inhibition [%] / (S,S)-Ethambutol inhibition [%]: 20 μM inhibitor
T3 sequence (O15244 1-555): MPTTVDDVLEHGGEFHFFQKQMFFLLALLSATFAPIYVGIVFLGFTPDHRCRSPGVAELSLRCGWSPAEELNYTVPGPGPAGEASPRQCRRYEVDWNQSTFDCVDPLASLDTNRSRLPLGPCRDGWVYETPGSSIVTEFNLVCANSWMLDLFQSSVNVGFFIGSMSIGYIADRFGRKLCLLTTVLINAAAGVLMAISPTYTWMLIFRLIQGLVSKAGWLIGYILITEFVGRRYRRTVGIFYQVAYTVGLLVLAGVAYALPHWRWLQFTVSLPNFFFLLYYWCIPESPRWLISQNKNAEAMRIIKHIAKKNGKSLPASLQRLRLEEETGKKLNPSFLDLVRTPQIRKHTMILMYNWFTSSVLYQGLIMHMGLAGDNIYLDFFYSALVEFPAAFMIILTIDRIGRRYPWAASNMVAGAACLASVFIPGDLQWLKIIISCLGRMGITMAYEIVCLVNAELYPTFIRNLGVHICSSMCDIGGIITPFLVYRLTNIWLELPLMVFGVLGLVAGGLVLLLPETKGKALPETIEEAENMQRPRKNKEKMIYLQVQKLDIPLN

[1] = human, pH 7.4, probe (S,S)-ethambutol (2 μM), (S,S)-Ethambutol inhibition [%], OCT1, 20 μM inhibitor, 2 μM (S,S)-ethambutol, 5 min
[2] = human, pH 7.4, probe ASP+ (2 μM), OCT1, 20 μM inhibitor, 2 μM ASP+, 5 min, mean of three experiments, read-out: ASP+ inhibition [%]
[3] = human, pH 7.4, probe sumatriptan (2 μM), OCT1, 20 μM inhibitor, 2 μM sumatriptan, 5 min, read-out: Sumatriptan inhibition [%]
[4] = HEK293, 5 min, read-out: (S)-Zolmitriptan inhibition [%], OCT3, 20 μM inhibitor, 2 μM (S)-zolmitriptan, 5 min
[5] = HEK293, 5 min, read-out: (S,S)-Ethambutol inhibition [%], OCT3, 20 μM inhibitor, 2 μM (S,S)-ethambutol, 5 min
[6] = HEK293, OCT3, 20 μM inhibitor, 2 μM ASP+, 5 min, read-out: ASP+ inhibition [%]
[7] = pH 7.4, probe (S,S)-ethambutol (2 μM), (S,S)-Ethambutol inhibition [%], OCT2, 2 μM (S,S)-ethambutol, 5 min
[8] = pH 7.4, probe ASP+ (2 μM), ASP+ inhibition [%], OCT2, 2 μM ASP+, 5 min
[9] = pH 7.4, probe N-ethyllidocaine (2 μM), N-Ethyllidocaine inhibition [%], OCT2, 2 μM N-ethyllidocaine, 5 min
[10] = OCT1, 20 μM inhibitor, 2 μM (S,S)-ethambutol, 5 min
[11] = OCT1, 20 μM inhibitor, 2 μM sumatriptan, 5 min
[12] = OCT3, 20 μM inhibitor, 2 μM (S)-zolmitriptan, 5 min
[13] = OCT3, 20 μM inhibitor, 2 μM (S,S)-ethambutol, 5 min
[14] = OCT3, 20 μM inhibitor, 2 μM ASP+, 5 min
[15] = OCT2, 2 μM N-ethyllidocaine, 5 min
[16] = OCT1, 20 μM inhibitor, 2 μM ASP+, 5 min, mean of three experiments
[17] = OCT2, 2 μM (S,S)-ethambutol, 5 min
[18] = HEK293, 5 min, read-out: (S)-Zolmitriptan inhibition [%]
[19] = HEK293, 5 min, read-out: (S,S)-Ethambutol inhibition [%]

Molecule	inhibition at 5 min, 20 μM (OCT1; [1]) [%]	inhibition at 5 min, 20 μM (OCT1; [3]) [%]	(S,S)-Ethambutol inhibition [%] (OCT1; [10])	Sumatriptan inhibition [%] (OCT1; [11])	(S)-Zolmitriptan inhibition [%] (OCT3; [12])	(S,S)-Ethambutol inhibition [%] (OCT3; [13])	ASP+ inhibition [%] (OCT3; [14])	ASP+ inhibition [%] (OCT2; OCT2, 2 μM ASP+, 5 min)	N-Ethyllidocaine inhibition [%] (OCT2; [15])	ASP+ inhibition [%] (OCT1; [16])	(S,S)-Ethambutol inhibition [%] (OCT2; [17])	other results
CNC[C@@H](O)c1cccc(O)c1 [(S)-Phenylephrine]	6.2	-5.1	–	–	–	–	–	–	–	–	–	inhibition at 5 min, 20 μM (OCT1; [2]): 5.2%; inhibition at 20 µM (OCT3; [4]): -3.9%; inhibition at 20 µM (OCT3; [5]): 5.6%; inhibition at 20 µM (OCT3; [6]): 2.7%; inhibition at 5 min, 20 μM (OCT2; [7]): 5.5%; inhibition at 5 min, 20 μM (OCT2; [8]): 5.4%; inhibition at 5 min, 20 μM (OCT2; [9]): -2.7%
(+)-Sparteine	–	–	83.5	81.6	28.7	32.7	5.2	112.4	99.9	–	–	–
CN(C)CCO[C@@](C)(c1ccccc1)c1ccccn1 [(S)-Doxylamine]	–	–	86.5	88.2	33.8	35.8	7.4	64.3	-17.1	51.7	26.3	IC50 (OCT1; OCT1, Table S5, 2 μM ASP+ or ethambutol as model substrate, 5 min, read-out: IC50): 32.2 µM; selectivity ratio at 5 min (OCT1; human, pH 7.4, OCT1, Table S5, ratio of the IC50 values of both isomers, label = isomer named in the cell (as a rule the one with the higher IC50), read-out: Stereoselectivity (x-fold for the named isomer)): 1.4
C#CCN[C@@H]1CCc2ccccc21 [(R)-Rasagiline]	32	42.7	–	–	–	–	-11.8	51.7	56.7	-1.3	51.3	inhibition at 20 µM (OCT3; [4]): 10.3%; inhibition at 20 µM (OCT3; [5]): 13.4%
CCC(CO)NCCNC(CC)CO [(R,S)-Ethambutol]	–	–	–	10.2	-8.0	–	2.6	26.0	6.8	4.0	–	–
CC(C)(C)NC[C@H](O)COc1nsnc1N1CCOCC1 [(S)-Timolol]	25.6	42.1	–	–	–	–	–	–	–	–	–	inhibition at 5 min, 20 μM (OCT1; [2]): 3.9%; inhibition at 20 µM (OCT3; [4]): 16.8%; inhibition at 20 µM (OCT3; [5]): 11.1%; inhibition at 20 µM (OCT3; [6]): 27.8%; IC50 (OCT2; IC50, OCT2, Table S5, 2 μM ASP+ as model substrate, 5 min): 60.2 µM; inhibition at 5 min, 20 μM (OCT2; [7]): 14.4%; inhibition at 5 min, 20 μM (OCT2; [8]): 50.1%; inhibition at 5 min, 20 μM (OCT2; [9]): 25.1%
CC(C)C[C@@H](N(C)C)C1(c2ccc(Cl)cc2)CCC1 [(R)-Sibutramine]	–	–	–	–	–	–	2.6	81.6	51.2	41.5	–	Sumatriptan inhibition [%] (OCT1; human, pH 7.4): 74.0%; inhibition at 20 µM (OCT3; [18]): 38.1%; inhibition at 20 µM (OCT3; [19]): 35.5%
CC(C)NC[C@@H](O)COc1cccc2ccccc12 [(R)-Propranolol]	79.9	84.3	–	–	–	–	–	–	–	–	–	inhibition at 5 min, 20 μM (OCT1; [2]): 44.8%; IC50 (OCT3): 195 µM; inhibition at 5 min, 20 μM (OCT2; [7]): 25%; inhibition at 5 min, 20 μM (OCT2; [8]): 47.8%; inhibition at 5 min, 20 μM (OCT2; [9]): 20%
O=C(OC1C[N+]2(CCCOc3ccccc3)CCC1CC2)C(O)(c1cccs1)c1cccs1 [(S)-Aclidinium]	–	–	101.4	93.8	53.3	67.7	37.7	101.8	57.3	78.8	2.7	–
CCN(CC)CC#CCOC(=O)C(O)(c1ccccc1)C1CCCCC1 (centres unmarked) [Oxybutynine]	–	–	–	–	–	–	–	–	–	–	–	selectivity ratio at 5 min (OCT1; human, pH 7.4, OCT1, ratio of the IC50 values of the two enantiomers of the drug, read-out: x-fold Stereoselectivity): 1.2; x-fold Stereoselectivity (OCT3; OCT3, ratio of the IC50 values of the two enantiomers of the drug): 1.6 fold; stereoselective inhibition of OCT3 (in words) (OCT3; ethambutol and zolmitriptan as substrates, 20 μM inhibitor): stereoselective inhibition; x-fold Stereoselectivity (OCT2; OCT2, ratio of the IC50 values of the two enantiomers of the drug): 1.6 fold
COc1ccc([C@H](CN(C)C)C2(O)CCCCC2)cc1 [(R)-Venlafaxine]	–	–	–	–	–	–	–	29.1	23.1	–	–	Sumatriptan inhibition [%] (OCT1; human, pH 7.4): 70.8%; inhibition at 20 µM (OCT3; [18]): 12.6%; inhibition at 20 µM (OCT3; [19]): 12.3%; inhibition at 20 µM (OCT3; [6]): -2.8%
CNCC[C@H](Oc1ccc(C(F)(F)F)cc1)c1ccccc1 [(S)-Fluoxetine]	–	–	78.6	82.3	–	–	–	56.6	28.7	47.7	6.4	(S)-Zolmitriptan inhibition [%] (OCT3): 13.8; (S,S)-Ethambutol inhibition [%] (OCT3): 12.3; ASP+ inhibition [%] (OCT3): -3.1
CC(C)NC[C@H](O)COc1cccc2ccccc12 [(S)-Propranolol]	–	–	74.3	82.8	38.2	32.0	-2.9	57.3	32.4	40.6	28.4	IC50 (OCT3): 69 µM
